Values belong to the compound of their own block, whether it stands above or below them.
Tests used:
[1] = target: thrombin (Homo sapiens, UniProt P00734); settings: cited from earlier work; for KassThr/KassThy: selectivity ratio
[2] = target: T1, FIXa (Homo sapiens, UniProt P00740); assay: Score assay, FIXa (chromogenic substrate Pefachrome IXa); format: biochemical; design: key: fold increase in inhibitor conc / inhibitor conc used (mM); settings: Score = fold increase in inhibitor concentration / concentration of inhibitor used (in mM), 37° C., pH 7.4
T1 construct: FIXa was obtained from Haematologics; purchased Haematologics
T1 sequence (P00740 227-461 limits assumed): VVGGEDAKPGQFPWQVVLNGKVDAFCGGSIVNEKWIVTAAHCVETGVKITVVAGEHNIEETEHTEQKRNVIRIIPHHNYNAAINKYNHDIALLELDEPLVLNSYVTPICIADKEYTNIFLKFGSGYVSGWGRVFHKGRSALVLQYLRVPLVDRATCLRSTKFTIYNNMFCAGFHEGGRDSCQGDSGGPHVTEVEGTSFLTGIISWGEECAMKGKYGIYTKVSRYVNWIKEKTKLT
T1 sequence (P00740 47-191 partner limits assumed): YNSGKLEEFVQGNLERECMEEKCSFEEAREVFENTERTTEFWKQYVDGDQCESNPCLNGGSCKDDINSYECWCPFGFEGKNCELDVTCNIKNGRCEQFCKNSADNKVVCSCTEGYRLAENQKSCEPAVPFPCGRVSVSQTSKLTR
Method: (§1) Score gives a facile measure of the effectiveness of an inhibitor requiring only one or two data points, rather than the twelve or more data points required to calculate an IC50.
(§2) The principle behind calculating the score is that, although the absolute values obtained from inhibitors of the same type may be different, the shape and range of the IC50 curves are quite similar.
(§3) Molecular Devices Corp. Thermomax plate reader.
Pefachrome IXa (Kordia, for FIXa)
(§4) Buffer for FIXa assay: 50 mM Tris; 100 mM sodium chloride; 0.5% PEG 6000, pH 7.4. The aqueous buffer was freshly mixed each day with ethylene glycol (65%:35% respectively) Human α-thrombin was obtained from J. Freysinnet (Strasbourg).
FIXa was obtained from Haematologics.
FIXa (50 μl of a stock at 0.01 mg/ml) is added.
(§5) The data from IC50 curves for 13 compounds were used to construct an average IC50 curve.
(§6) The average values for the fold increase at each 10% step are shown below:
(§7) Measurement of single concentrations of inhibitor on a plate reader (using MDC ‘Softmax’ software) gave a value from 9 to 0 when compared to a control without inhibitor which corresponds to the % inhibition a shown in Table 1. Provided that the plate reader number was >2 but <8 (linear part of the graph) the score could then be calculated as follows.
(§8) Score=fold increase in inhibitor concentration (see table 1)/concentration of inhibitor used (in mM)

[3] = target: T2, Human α-thrombin (Homo sapiens, UniProt P00734); assay: Score assay, Thr (chromogenic substrate S-2238); format: biochemical; settings: Score = fold increase in inhibitor concentration / concentration of inhibitor used (in mM), 37° C., pH 7.4
T2 construct: Human α-thrombin was obtained from J. Freysinnet (Strasbourg); purchased J. Freysinnet (Strasbourg)
Source text: as §1, §2, §3
S-2238 (H-D-Phe-Pip-Arg-pNA, for Thr) was obtained from Quadratech.
(§9) Buffer for Thr, Try, Pla, UK or Xa assay: 0.1M sodium phosphate; 0.2M sodium chloride; 0.5% PEG6000; 0.02% sodium azide, pH 7.4.
as §4
Inhibitor (100 μl of dilution in buffer of 1/20 or higher as appropriate from stock in DMSO) is added to substrate (50 μl of a dilution of 1/100 of 2.4 mg/ml stock) for 2 minutes at 37° C. Thr (50 μl of a dilution of {fraction (1/10,000)} of stock at 1 mg/ml) is added.
as §5, §6, §7, §8

[4] = target: Try (trypsin) (Homo sapiens, UniProt P07477); assay: Score assay, Try (chromogenic substrate S-2288); format: biochemical; design: key: score = fold increase in inhibitor conc / inhibitor conc used (mM); settings: Table 3, substrate 25 μM
Source text: as §1, §2, §3
S-2288 (H-D-Ileu-Pro-Arg-pNa for Try) was obtained from Quadratech.
as §9
(§10) Final Substrates Concentrations were 25 μM, 113 μM, 22 μM and 125 μM for Try, Pla, Xa and UK Respectively.
as §5, §6, §7, §8

[5] = target: Xa (factor X activated) (Homo sapiens, UniProt P00742); assay: Score assay, Xa (chromogenic substrate S-2765); format: biochemical; design: key: score = fold increase in inhibitor conc / inhibitor conc used (mM); settings: Table 3, substrate 22 μM
Xa (factor X activated), sequence (P00742 235-488 limits assumed): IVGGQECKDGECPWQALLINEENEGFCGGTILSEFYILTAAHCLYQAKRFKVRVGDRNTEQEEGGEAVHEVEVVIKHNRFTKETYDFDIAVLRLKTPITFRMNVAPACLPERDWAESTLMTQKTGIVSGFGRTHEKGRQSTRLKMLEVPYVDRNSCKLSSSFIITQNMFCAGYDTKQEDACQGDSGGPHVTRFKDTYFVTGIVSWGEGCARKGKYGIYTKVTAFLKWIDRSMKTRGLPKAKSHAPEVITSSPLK
Xa (factor X activated), sequence (P00742 41-179 partner limits assumed): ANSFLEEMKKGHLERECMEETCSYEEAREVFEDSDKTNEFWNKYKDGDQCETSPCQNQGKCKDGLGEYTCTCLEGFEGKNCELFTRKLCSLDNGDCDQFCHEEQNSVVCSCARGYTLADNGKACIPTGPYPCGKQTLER
Source text: as §1, §2, §3
S-2765 (N-α-Z-D-ArgGly-Arg-pNa for Xa) was obtained from Quadratech.
as §9, §10, §5, §6, §7, §8

[6] = target: Pla (plasmin) (Homo sapiens, UniProt P00747); assay: Score assay, Pla (chromogenic substrate S-2251); format: biochemical; settings: Table 3, substrate 113 μM
Pla (plasmin), sequence (P00747 581-810 limits assumed, species assumed): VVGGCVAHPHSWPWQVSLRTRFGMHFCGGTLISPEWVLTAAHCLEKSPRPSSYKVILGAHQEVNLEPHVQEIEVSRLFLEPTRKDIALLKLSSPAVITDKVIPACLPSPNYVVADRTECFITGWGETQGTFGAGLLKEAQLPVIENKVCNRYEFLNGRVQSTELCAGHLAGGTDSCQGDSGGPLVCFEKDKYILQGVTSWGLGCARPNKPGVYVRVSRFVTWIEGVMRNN
Pla (plasmin), sequence (P00747 97-580 partner limits assumed, species assumed): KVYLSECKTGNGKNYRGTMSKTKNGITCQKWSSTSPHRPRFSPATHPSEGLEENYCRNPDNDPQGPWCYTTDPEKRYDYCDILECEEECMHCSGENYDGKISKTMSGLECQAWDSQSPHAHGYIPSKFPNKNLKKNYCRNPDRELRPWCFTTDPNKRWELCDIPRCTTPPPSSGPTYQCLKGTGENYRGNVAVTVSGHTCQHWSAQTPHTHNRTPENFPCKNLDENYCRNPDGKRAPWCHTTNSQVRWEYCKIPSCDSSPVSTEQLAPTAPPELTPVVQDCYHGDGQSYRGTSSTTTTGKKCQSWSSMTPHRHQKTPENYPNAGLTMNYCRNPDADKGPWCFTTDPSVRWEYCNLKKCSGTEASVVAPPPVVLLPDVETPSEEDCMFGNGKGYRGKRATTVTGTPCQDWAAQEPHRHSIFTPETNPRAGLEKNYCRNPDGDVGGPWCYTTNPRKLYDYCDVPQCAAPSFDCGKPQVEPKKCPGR
Source text: as §1, §2, §3
S-2251 (H-D-Val-Leu-Lys-pNa for Pla) was obtained from Quadratech.
as §9, §10, §5, §6, §7, §8

[7] = target: UK (urokinase) (Homo sapiens, UniProt P00749); assay: Score assay, UK (chromogenic substrate S-2444); format: biochemical; design: key: score = fold increase in inhibitor conc / inhibitor conc used (mM); settings: Table 3, substrate 125 μM
Source text: as §1, §2, §3
S-2444 (pyro-Glu-Gly-Arg-pNa for UK) was obtained from Quadratech.
as §9, §10, §5, §6, §7, §8

[8] = cited from earlier work
[9] = Table 1 comparators, single concentration, higher = more effective
[10] = Table 1 comparators, single concentration

SMILES: CC(C)N(CC(=O)N[C@H](C=O)CCCNC(=N)N)C(=O)[C@H]1CCCCN1 [D-hPro-(Nα-isopropyl)Gly-Arg-H]
- KassThr/KassThy [1]: 20

SMILES: CC1(C)OB(c2ccccc2CSC(=N)N)OC1(C)C [compound 832]
- FIXa score ([2]; Table 3): 7
- Thr Score ([3]; Table 3): 70
- Try (score) [4]: 7
- Xa (score) [5]: 7
- Pla (score) [6]: 1
- UK (score) [7]: 26

SMILES: Br.N=C(N)NC(=N)Nc1cc(F)cc(F)c1Br [compound 929]
- FIXa score [2, 9]: 1.6
- Thr Score [3, 10]: 0

SMILES: COc1cccc(Oc2ccc(B3OC(C)(C)C(C)(C)O3)cc2CSC(=N)N)c1 [compound 1058]
- FIXa score ([2]; Table 3): 97
- Thr Score ([3]; Table 3): 666

SMILES: Br.Cc1ccc(I)cc1NC(=N)NC(=N)N [compound 930]
- FIXa score [2, 9]: 0.6
- Thr Score [3, 10]: 0

SMILES: CN[C@H](Cc1ccccc1)C(=O)N1CCC[C@H]1C(=O)N[C@H](C=O)CCCN=C(N)N [LY294468, H-D-MePhe-Pro-Arginal]
- KassThr [1]: 5.4e+06 L/mol
- KassThr/KassThy [1]: 5.1

SMILES: CC1(C)OB(c2cccc(CSC(=N)N)c2)OC1(C)C [compound 852]
- FIXa score ([2]; Table 3): 76
- Thr Score ([3]; Table 3): 326
- Try (score) [4]: 624
- Xa (score) [5]: 624
- Pla (score) [6]: 393
- UK (score) [7]: 792

SMILES: CC1(C)OB(c2ccc(Oc3ccc(Oc4ccccc4)cc3)c(CSC(=N)N)c2)OC1(C)C [compound 1056]
- FIXa score ([2]; Table 3): 626
- Thr Score ([3]; Table 3): 455

SMILES: CC1(C)OB(c2ccc(N3CCN(c4ccccn4)CC3)c(CSC(=N)N)c2)OC1(C)C [compound 1031]
- FIXa score ([2]; Table 3): 39.0
- Thr Score ([3]; Table 3): 15(*)

SMILES: c1ccc2ncccc2c1 [quinoline]
- pKa [8]: 4.0

Continued, values first:

- FIXa score ([2]; Table 3): 346
- Thr Score ([3]; Table 3): 2174
SMILES: N=C(N)SCc1cc(B(O)O)ccc1Oc1ccc2c(c1)CCCC2 [compound 1070]

- FIXa score ([2]; Table 3): 10.1
- Thr Score ([3]; Table 3): 2.0
- Try (score) [4]: 2
- Xa (score) [5]: 1
- Pla (score) [6]: 1
- UK (score) [7]: 4
SMILES: CC(=O)NNC(=N)SCc1cccc(B(O)O)c1 [compound 915]

- FIXa score ([2]; Table 3): 6.4
- Thr Score ([3]; Table 3): 6.4
- Try (score) [4]: 440
- Xa (score) [5]: 6
- Pla (score) [6]: 32
- UK (score) [7]: 3076
SMILES: N=C(N)SCc1ccc(B(O)O)cc1 [compound 866]

- FIXa score ([2]; Table 3): 209
- Thr Score ([3]; Table 3): 421
- Try (score) [4]: 868
- Xa (score) [5]: 868
- Pla (score) [6]: 289
- UK (score) [7]: 776
SMILES: N=C(N)SCc1cccc(B(O)O)c1 [compound 864]

- FIXa score ([2]; Table 3): 746
- Thr Score ([3]; Table 3): 1410
SMILES: N=C(N)SCc1cc(B(O)O)ccc1Oc1ccc(C(=O)c2ccccc2)cc1 [compound 1072]

- FIXa score ([2]; Table 3): 59.6
- Thr Score ([3]; Table 3): 1215
- Try (score) [4]: 640
- Xa (score) [5]: 1862
- Pla (score) [6]: 640
- UK (score) [7]: 880
SMILES: N=C(N)SCc1cc(CSC(=N)N)cc(B(O)O)c1 [compound 968]

- FIXa score ([2]; Table 3): 229
- Thr Score ([3]; Table 3): 4156
SMILES: N#Cc1cccc(Oc2ccc(B(O)O)cc2CSC(=N)N)c1 [compound 1069]
